# pIC50: −log10 of the molar value.
# Tested on: Aβ42 production in H4 APP751 SWE clone 8.20 cells
# Assay: Cellular assay for inhibition of Aβ1-42 production
# Type: cell-based
# Settings: H4 cells stably transfected with APP751 Swedish mutation (clone 8.20), 19 h incubation
# Description: H4 cells stably transfected with APP751 containing the Swedish mutation (H4 APP751 SWE clone 8.20, developed at BMS) were maintained in log phase through twice weekly passage at a 1:20 split. […] Following incubation for 19 h in 5% CO2 at 37° C., plates were briefly centrifuged (1000 rpm, 5 min). A 10 μl aliquot from each well was transferred to a second assay plate (Costar 3709) for Aβ40 measurements. Antibody cocktails were freshly prepared by dilution into 40 mM Tris-HCl (pH 7.4) with 0.2% BSA and added to assay plates. For Aβ42 measurements, antibodies specific for the Aβ42 neoepitope (565, developed at BMS; conjugated to the Wallac reagent (Perkin Elmer)) and the N-terminal sequence of Aβ peptide (26D6, developed at SIBIA; conjugated to APC (Perkin Elmer)) were mixed and 20 μl of the mixture was added to each well of the incubated cell plate yielding a final concentration of 0.8 ng/well 565 and 75 ng/well 26D6. […] Assay plates containing antibodies were sealed with aluminum foil and incubated overnight at 4° C. Signal was determined using a Viewlux counter (Perkin Elmer) and IC50 values determined using curve fitting in CurveMaster (Excel Fit based).
row,SMILES,pIC50
1,"NC1=N[C@@]2(c3cc(-c4cncnc4)c(F)cc3F)OCCC[C@H]2CS1 [Example 11, (4aR,8aR)-8a-(2,4-difluoro-5-(pyrimidin-5-yl)phenyl)-4,4a,5,6,7,8a-hexahydropyrano[2,3-d][1,3]thiazin-2-amine]",6.00
2,"CC#Cc1cncc(-c2cc([C@@]34N=C(N)SC[C@@H]3CCO4)c(F)cc2F)c1 (racemic) [Example 8, (±)-(4aR,7aR)-7a-(2,4-difluoro-5-(5-(prop-1-ynyl)pyridin-3-yl)phenyl)-4a,5,6,7a-tetrahydro-4H-furo[2,3-d][1,3]thiazin-2-amine]",6.03
3,"N#Cc1ccc(C(=O)Nc2ccc(F)c([C@@]34N=C(N)SC[C@@H]3CCO4)c2)nc1 [Example 3, N-(3-((4aR,7aR)-2-amino-4a,5,6,7a-tetrahydro-4H-furo[2,3-d][1,3]thiazin-7a-yl)-4-fluorophenyl)-5-cyanopicolinamide]",7.14
4,"NC1=N[C@@]2(c3cc(NC(=O)c4ccccn4)ccc3F)OCC[C@H]2CS1 (racemic) [Example 5, (±)-N-(3-((4aR,7aR)-2-amino-4a,5,6,7a-tetrahydro-4H-furo[2,3-d][1,3]thiazin-7a-yl)-4-fluorophenyl)picolinamide]",6.07

# Next, values leading:
row,pIC50,SMILES
1,6.33,"NC1=N[C@@]2(c3cc(NC(=O)c4ccc(F)cn4)ccc3F)OCC[C@H]2CS1 (racemic) [Example 4, (±)-N-(3-((4aR,7aR)-2-amino-4a,5,6,7a-tetrahydro-4H-furo[2,3-d][1,3]thiazin-7a-yl)-4-fluorophenyl)-5-fluoropicolinamide]"
2,7.62,"NC1=N[C@@]2(c3cc(NC(=O)c4ccc(Cl)cn4)ccc3F)OCC[C@H]2CS1 [Example 2, N-(3-((4aR,7aR)-2-amino-4a,5,6,7a-tetrahydro-4H-furo[2,3-d][1,3]thiazin-7a-yl)-4-fluorophenyl)-5-chloropicolinamide]"
